Results published in ChEMBL document CHEMBL4368883, “Identification of the first enantiopure Rac1-Tiam1 protein-protein interaction inhibitor and its optimized synthesis via phosphine free remote group directed hydroarylation” (Medchemcomm, 2019).
Calls of active or inactive are those of the source. The calls are words filed in the database; no cut-off is given here.

Experiments:
[1] = target: T1, Ras-related C3 botulinum toxin substrate 1/T-lymphoma invasion and metastasis-inducing protein 1 (Homo sapiens) (UniProt P63000+Q13009); experiment: Inhibition of Rac1-Tiam1 protein-protein interaction in human A617 cells assessed as reduction in intracellular Rac1-GTP levels at 10 uM after 4 hrs by G-LISA assay relative to control; type: cell-based
[2] = target: T1, Ras-related C3 botulinum toxin substrate 1/T-lymphoma invasion and metastasis-inducing protein 1 (Homo sapiens); experiment: Inhibition of Rac1-Tiam1 protein-protein interaction in human A617 cells assessed as reduction in intracellular Rac1-GTP levels at 1 to 10 uM after 4 hrs by G-LISA assay; type: cell-based

CCOC(=O)C1(N)C2CC(CC2c2cccc(Nc3ccc(N)cc3)c2)C1Sc1ccccc1 (racemic)
inhibition [1]: 17.2% | inhibition [2]: inactive
